From patent US20050215582A1, “Substituted pyrrolopyridines” (priority 2002, published 2005)
Counter-ions that a name gives are not always drawn.

Molecular target: T1, recombinant human Itk kinase domain fused with GST (Homo sapiens, UniProt Q08881)
T1 construct: recombinant human Itk kinase domain fused with GST; GST (Glutathione S-Transferase); made in house; host or cells: High five insect cells
T1 sequence (Q08881 363-615 limits assumed): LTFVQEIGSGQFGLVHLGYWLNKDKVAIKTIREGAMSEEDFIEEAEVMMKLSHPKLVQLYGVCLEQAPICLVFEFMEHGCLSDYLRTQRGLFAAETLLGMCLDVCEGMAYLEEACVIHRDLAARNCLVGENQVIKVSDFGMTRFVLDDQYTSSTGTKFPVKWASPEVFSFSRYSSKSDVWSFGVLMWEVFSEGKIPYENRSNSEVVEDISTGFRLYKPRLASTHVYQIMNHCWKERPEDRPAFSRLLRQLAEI
Experiment: Itk LANCE TRF Assay
Assay type: biochemical
Settings: 50 μM ATP, 2 μM biotinylated peptide substrate, 50 minutes RT; read-out: Inhibition of Kinase Itk (IC50 μM)
Description: The Itk kinase assay utilized recombinant human Itk kinase domain fused with GST (Glutathione S-Transferase). The protein was expressed in High five insect cells, purified in one step on an affinity chromatography glutathione column and stored in 50 mM Tris/HCl (pH 7.6), 150 mM NaCl, 5% (w/v) mannitol, 1 mM DTT, 30% glycerol at −70° C. The kinase substrate used in the assay was a biotinylated peptide derived from the Src-optimal substrate (Nair et at, J. Med. Chem., 38: 4276, 1995; biotin-AEEEIYGEFEAKKKK).
The assay additions were as follows: Test compounds (or controls; 1 μL in 100% DMSO) were added to black 96-well flat-bottomed plates (Greiner 655076) followed by 20 μL Itk in assay buffer and the reaction was started by adding 20 μL ATP and peptide substrate in assay buffer. The assay buffer constitution during phosphorylation was: 50 mM HEPES (pH 6.8), 10 mM MgCl2, 0.015% Brij 35, 1 mM DTT, 10% glycerol, 160 ng/well Itk, 2 μM peptide substrate and 50 μM ATP. The assay was stopped after 50 minutes (RT) by adding 150 μL ice-cold Stop solution (50 mM Tris/HCl, pH 7.5, 10 mM EDTA, 0.9% NaCl and 0.1% BSA) together with LANCE reagents (2 nM PT66-Eu^3+, Wallac AD0069 and 5 μg/ml Streptavidin-APC, Wallac AD0059. Both concentrations were final in stopped assay solution). The plates were measured on a Wallac 1420 Victor 2 instrument with TRF settings after 1 h incubation, and the ratio (665 signal/615 signal)*10000 was used to calculate the inhibition values. IC50 values were determined using XLfit.

IC50 [µM]	Compound
0.18	CN(C)CCCOc1ccc(-c2[nH]c3ncc(Cl)cc3c2C2CCNCC2)cc1 [Example 8, {3-[4-(5-Chloro-3-piperidin-4-yl-1H-pyrrolo[2,3-b]pyridin-2-yl)phenoxy]propyl}dimethylamine]
0.26	Cc1cnc2[nH]c(-c3ccco3)c(C3CCCN(C(N)=O)C3)c2c1 (stereo not drawn) [Example 5, 3-[2-(2-Furyl)-5-methyl-1H-pyrrolo[2,3-b]pyridin-3-yl]piperidine-1-carboxamide]
0.09	COc1ccc(-c2[nH]c3ncc(Br)cc3c2N2CCNCC2)cc1 [Example 21, 5-Bromo-2-(4-methoxy-phenyl)-3-piperazin-1-yl-1H-pyrrolo[2,3-b]pyridine trifluoroacetate]
